Test results reported in the Kinase Knowledgebase extract (Sharma et al. 2016).

Tests used:
PIK3CA (human) = PIK3CA (human) (UniProt P42336); assay: Assessment of PIK3CA Kinase Activity
PIK3CD (Human) = PIK3CD (Human) (UniProt O00329); assay: Assessment of PIK3CD Kinase Activity
PIK3CB (Human) = PIK3CB (Human) (UniProt P42338); assay: Assessment of PIK3CB Kinase Activity
Chain of PIK3CB (Human) (P42338 whole entry, looked up): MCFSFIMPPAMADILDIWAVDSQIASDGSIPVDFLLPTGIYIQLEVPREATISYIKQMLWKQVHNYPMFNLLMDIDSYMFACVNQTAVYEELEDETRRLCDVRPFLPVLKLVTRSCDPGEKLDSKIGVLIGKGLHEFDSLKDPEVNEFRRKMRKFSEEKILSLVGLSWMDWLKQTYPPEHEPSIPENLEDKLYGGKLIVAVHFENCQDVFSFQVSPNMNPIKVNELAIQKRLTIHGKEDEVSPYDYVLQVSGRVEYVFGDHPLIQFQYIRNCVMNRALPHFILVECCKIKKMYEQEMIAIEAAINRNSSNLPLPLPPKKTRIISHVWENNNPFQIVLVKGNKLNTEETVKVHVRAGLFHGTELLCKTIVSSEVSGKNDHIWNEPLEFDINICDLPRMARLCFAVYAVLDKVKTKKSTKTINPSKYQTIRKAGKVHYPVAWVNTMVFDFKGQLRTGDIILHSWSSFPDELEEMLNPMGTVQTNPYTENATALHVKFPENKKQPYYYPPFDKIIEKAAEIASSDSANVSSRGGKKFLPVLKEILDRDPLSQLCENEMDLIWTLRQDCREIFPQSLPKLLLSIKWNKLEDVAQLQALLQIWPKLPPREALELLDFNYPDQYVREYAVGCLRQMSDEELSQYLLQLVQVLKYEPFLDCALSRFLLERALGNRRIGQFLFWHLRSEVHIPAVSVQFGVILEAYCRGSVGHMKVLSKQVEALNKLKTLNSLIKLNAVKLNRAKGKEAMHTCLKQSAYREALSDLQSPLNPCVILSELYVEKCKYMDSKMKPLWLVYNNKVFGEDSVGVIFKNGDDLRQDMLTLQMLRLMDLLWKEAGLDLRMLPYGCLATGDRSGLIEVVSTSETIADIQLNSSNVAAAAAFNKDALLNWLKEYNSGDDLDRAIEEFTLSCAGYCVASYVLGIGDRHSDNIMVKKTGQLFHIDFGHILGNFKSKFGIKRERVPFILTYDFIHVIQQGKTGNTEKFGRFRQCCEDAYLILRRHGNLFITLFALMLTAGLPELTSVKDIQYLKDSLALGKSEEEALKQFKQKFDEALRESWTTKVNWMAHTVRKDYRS

Chain of PIK3CA (human) (P42336 whole entry, looked up): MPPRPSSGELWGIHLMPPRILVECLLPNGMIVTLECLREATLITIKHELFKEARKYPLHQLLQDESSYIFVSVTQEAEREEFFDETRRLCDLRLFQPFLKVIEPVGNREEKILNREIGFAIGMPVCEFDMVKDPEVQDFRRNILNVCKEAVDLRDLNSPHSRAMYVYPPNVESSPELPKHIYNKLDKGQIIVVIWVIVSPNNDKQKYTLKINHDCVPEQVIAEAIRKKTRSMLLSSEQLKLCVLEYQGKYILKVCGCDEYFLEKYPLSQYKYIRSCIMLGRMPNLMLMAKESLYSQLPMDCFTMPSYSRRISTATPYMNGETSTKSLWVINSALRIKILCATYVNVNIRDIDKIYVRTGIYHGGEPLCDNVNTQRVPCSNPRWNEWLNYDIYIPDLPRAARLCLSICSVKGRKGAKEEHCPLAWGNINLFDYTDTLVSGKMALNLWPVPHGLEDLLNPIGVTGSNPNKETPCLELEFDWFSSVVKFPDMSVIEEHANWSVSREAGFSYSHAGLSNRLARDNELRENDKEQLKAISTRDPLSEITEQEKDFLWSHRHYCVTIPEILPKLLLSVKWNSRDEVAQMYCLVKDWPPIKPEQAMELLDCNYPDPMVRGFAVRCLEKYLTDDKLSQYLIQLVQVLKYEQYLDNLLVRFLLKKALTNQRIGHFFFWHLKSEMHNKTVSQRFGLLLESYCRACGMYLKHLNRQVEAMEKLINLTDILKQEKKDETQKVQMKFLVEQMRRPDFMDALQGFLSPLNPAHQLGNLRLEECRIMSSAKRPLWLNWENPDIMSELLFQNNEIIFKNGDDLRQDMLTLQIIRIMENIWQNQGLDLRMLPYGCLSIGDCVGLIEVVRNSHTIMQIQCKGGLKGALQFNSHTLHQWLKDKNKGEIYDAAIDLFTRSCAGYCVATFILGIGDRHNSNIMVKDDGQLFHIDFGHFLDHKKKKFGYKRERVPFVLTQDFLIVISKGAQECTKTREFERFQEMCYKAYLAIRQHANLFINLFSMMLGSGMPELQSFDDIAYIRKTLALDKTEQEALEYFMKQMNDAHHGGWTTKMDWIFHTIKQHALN
Chain of PIK3CD (Human) (O00329 whole entry, looked up): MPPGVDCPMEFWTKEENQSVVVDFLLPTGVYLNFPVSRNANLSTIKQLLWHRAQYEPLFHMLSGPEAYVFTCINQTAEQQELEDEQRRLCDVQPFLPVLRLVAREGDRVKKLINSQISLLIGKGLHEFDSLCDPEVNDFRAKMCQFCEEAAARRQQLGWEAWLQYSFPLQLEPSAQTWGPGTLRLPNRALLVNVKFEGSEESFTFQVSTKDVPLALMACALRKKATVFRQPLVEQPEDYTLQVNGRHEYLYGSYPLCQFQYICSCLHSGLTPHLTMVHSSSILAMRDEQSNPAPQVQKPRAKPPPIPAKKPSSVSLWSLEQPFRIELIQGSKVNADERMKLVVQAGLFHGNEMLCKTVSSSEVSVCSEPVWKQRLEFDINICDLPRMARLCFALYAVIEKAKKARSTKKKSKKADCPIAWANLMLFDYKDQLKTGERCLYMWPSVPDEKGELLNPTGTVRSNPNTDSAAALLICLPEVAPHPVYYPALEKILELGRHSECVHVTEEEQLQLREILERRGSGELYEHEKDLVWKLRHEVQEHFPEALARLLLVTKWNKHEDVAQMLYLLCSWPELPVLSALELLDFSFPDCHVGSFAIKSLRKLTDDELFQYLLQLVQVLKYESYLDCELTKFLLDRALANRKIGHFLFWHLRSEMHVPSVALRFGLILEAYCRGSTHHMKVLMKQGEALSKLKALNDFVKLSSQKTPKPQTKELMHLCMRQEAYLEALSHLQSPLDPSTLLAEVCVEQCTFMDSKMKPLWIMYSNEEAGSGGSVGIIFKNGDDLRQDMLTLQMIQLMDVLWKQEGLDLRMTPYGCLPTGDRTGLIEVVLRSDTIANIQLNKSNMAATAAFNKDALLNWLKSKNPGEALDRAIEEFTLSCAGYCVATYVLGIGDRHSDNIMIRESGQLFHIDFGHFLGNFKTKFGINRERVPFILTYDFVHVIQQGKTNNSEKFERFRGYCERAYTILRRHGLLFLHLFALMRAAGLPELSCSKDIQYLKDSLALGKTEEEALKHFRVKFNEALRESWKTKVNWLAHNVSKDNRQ

Row | Structure (SMILES) | IC50 (PIK3CA (human)) [nM] | IC50 (PIK3CD (Human)) [nM] | IC50 (PIK3CB (Human)) [nM]
1 | COc1cc(N)cc2c1nc(C(F)F)n2-c1nc(-c2ccn(C)n2)nc(N2CCOCC2)n1 | < 100 | < 100 | 
2 | CNc1ccc(Nc2nc(N3CCOCC3)nc(-n3c(C(F)F)nc4c(OC)cccc43)n2)cn1 | < 100 | < 100 | 100 to 1000
3 | COc1cc(N)cc2c1nc(C(F)F)n2-c1nc(N2CCOCC2)nc(-n2cccn2)n1 | < 100 | < 100 | 
4 | COc1cccc2c1nc(C(F)F)n2-c1nc(-c2cccnc2)cc(N2CCOCC2)n1 | < 100 | < 100 | 
5 | COc1ccc(Nc2nc(N3CCOCC3)nc(-n3c(C(F)F)nc4c(OC)cccc43)n2)cn1 | < 100 | < 100 | < 100
6 | COc1cccc2c1nc(C(F)F)n2-c1nc(Nc2cnc(Cl)nc2)nc(N2CCOCC2)n1 | < 100 | < 100 | 
7 | COc1cccc2c1nc(C(F)F)n2-c1nc(Nc2ccc(Cl)nc2)nc(N2CCOCC2)n1 | < 100 | < 100 | 100 to 1000
8 | COc1cccc2c1nc(C(F)F)n2-c1nc(N2CCOCC2)nc(N(C)c2cccnc2)n1 | < 100 | < 100 | < 100
9 | COc1ccc(Nc2nc(N3CCOCC3)nc(-n3c(C(F)F)nc4c(OC)cccc43)n2)nn1 | < 100 | < 100 | 100 to 1000
10 | COc1cccc2c1nc(C(F)F)n2-c1nc(Nc2ccc(N(C)C)nc2)nc(N2CCOCC2)n1 | < 100 | < 100 | 100 to 1000
11 | COc1cc(N)cc2c1nc(C(F)F)n2-c1nc(-c2cn[nH]c2)nc(N2CCOCC2)n1 | < 100 | < 100 | 
12 | COc1cccc2c1nc(C(F)F)n2-c1nc(-c2ccc(N)nc2)nc(N2CCOCC2)n1 | < 100 | < 100 | 
13 | COc1cc(Nc2nc(N3CCOCC3)nc(-n3c(C(F)F)nc4c(OC)cccc43)n2)ncn1 | < 100 | < 100 | 100 to 1000
14 | COc1ccncc1Nc1nc(N2CCOCC2)nc(-n2c(C(F)F)nc3c(OC)cccc32)n1 | < 100 | < 100 | 100 to 1000
15 | COc1cccc2c1nc(C(F)F)n2-c1nc(Nc2ccc(N)nc2)nc(N2CCOCC2)n1 | < 100 | < 100 | 100 to 1000
16 | COc1cccc2c1nc(C(F)F)n2-c1nc(N2CCOCC2)nc(N(C)c2cncnc2)n1 | < 100 | < 100 | 
17 | COc1cccc2c1nc(C(F)F)n2-c1nc(Nc2cnc(N(C)CCCN(C)C)nc2)nc(N2CCOCC2)n1 | < 100 | < 100 | 
18 | CN(Cc1ccccc1)c1nc(N2CCOCC2)nc(-n2c(C(F)F)nc3ccccc32)n1 |  | < 100 | 100 to 1000
19 | COc1cccc2c1nc(C(F)F)n2-c1nc(N2CCOCC2)c2ncn(-c3cncnc3)c2n1 | < 100 | < 100 | 
20 | COc1ncc(-c2cc(N3CCOCC3)nc(-n3c(C(F)F)nc4c(OC)cccc43)n2)cn1 | < 100 | 100 to 1000 | 
21 | COc1cccc2c1nc(C(F)F)n2-c1nc(Nc2ccc(F)nc2)nc(N2CCOCC2)n1 | < 100 | < 100 | 100 to 1000
22 | COc1cccc2c1nc(C(F)F)n2-c1nc(Nc2cnc(N(C)CCN(C)C)nc2)nc(N2CCOCC2)n1 | < 100 | < 100 | 
23 | COc1cccc2c1nc(C(F)F)n2-c1nc(N2CCOCC2)nc(-n2cccn2)n1 | < 100 | < 100 | 
24 | COc1cc(N)cc2c1nc(C(F)F)n2-c1nc(-c2cccnc2)cc(N2CCOCC2)n1 | < 100 | < 100 | 
25 | COc1ncc(Nc2nc(N3CCOCC3)nc(-n3c(C(F)F)nc4c(OC)cccc43)n2)cn1 | < 100 | < 100 | 100 to 1000
26 | COc1cccc2c1nc(C(F)F)n2-c1nc(-c2cncnc2)cc(N2CCOCC2)n1 | < 100 | 100 to 1000 | 

Now from value to compound:

Row | IC50 (PIK3CA (human)) [nM] | IC50 (PIK3CD (Human)) [nM] | IC50 (PIK3CB (Human)) [nM] | Structure (SMILES)
27 | < 100 | < 100 | 100 to 1000 | COc1cccc2c1nc(C(F)F)n2-c1nc(Nc2ccncn2)nc(N2CCOCC2)n1
28 | < 100 | < 100 | 100 to 1000 | COc1cccc2c1nc(C(F)F)n2-c1nc(Nc2cncnc2)nc(N2CCOCC2)n1
29 | < 100 | < 100 |  | FC(F)c1nc2ccccc2n1-c1nc(Nc2ccccn2)nc(N2CCOCC2)n1
30 | < 100 | < 100 | 100 to 1000 | FC(F)c1nc2ccccc2n1-c1nc(-c2cccnc2)nc(N2CCOCC2)n1
31 | 100 to 1000 | < 100 | 100 to 1000 | FC(F)c1nc2ccccc2n1-c1nc(Nc2ccccc2)nc(N2CCOCC2)n1
32 | 100 to 1000 | < 100 | 100 to 1000 | FC(F)c1nc2ccccc2n1-c1nc(NCc2cccnc2)nc(N2CCOCC2)n1
33 | < 100 | < 100 | 100 to 1000 | COc1cccc2c1nc(C(F)F)n2-c1nc(Nc2cccnn2)nc(N2CCOCC2)n1
34 | 100 to 1000 |  |  | FC(F)c1nc2ccccc2n1-c1nc(Oc2cccnc2)nc(N2CCOCC2)n1
35 | < 100 | < 100 | 100 to 1000 | FC(F)c1nc2ccccc2n1-c1nc(Nc2cncnc2)nc(N2CCOCC2)n1
36 | < 100 | < 100 | 100 to 1000 | COc1cccc2c1nc(C(F)F)n2-c1nc(Nc2cccnc2)nc(N2CCOCC2)n1
37 | > 10000 |  | > 10000 | FC(F)c1nc2ccccc2n1-c1nc(Oc2ccccc2)nc(N2CCOCC2)n1
38 | < 100 | < 100 | 100 to 1000 | Cn1cc(Nc2nc(N3CCOCC3)nc(-n3c(C(F)F)nc4ccccc43)n2)cn1
39 | 100 to 1000 | 100 to 1000 |  | FC(F)c1nc2ccccc2n1-c1nc(-c2cccnc2)cc(N2CCOCC2)n1
40 | 100 to 1000 | 100 to 1000 |  | FC(F)c1nc2ccccc2n1-c1nc(-c2cncnc2)cc(N2CCOCC2)n1
41 | 100 to 1000 | 100 to 1000 |  | FC(F)c1nc2ccccc2n1-c1nc(Nc2cnc3ccccc3c2)nc(N2CCOCC2)n1
42 | 100 to 1000 | < 100 | < 100 | FC(F)c1nc2ccccc2n1-c1nc(NCc2ccccc2)nc(N2CCOCC2)n1

Row | IC50 (PIK3CA (human)) [nM] | IC50 (PIK3CD (Human)) [nM] | IC50 (PIK3CB (Human)) [nM] | Structure (SMILES)
43 | > 10000 |  | > 10000 | FC(F)c1nc2ccccc2n1-c1nc(Sc2ccccc2)nc(N2CCOCC2)n1
44 | 100 to 1000 |  |  | FC(F)c1nc2ccccc2n1-c1nc(Nc2ncccn2)nc(N2CCOCC2)n1
45 | < 100 | < 100 |  | FC(F)c1nc2ccccc2n1-c1nc(Nc2cnccn2)nc(N2CCOCC2)n1
46 | 100 to 1000 | < 100 | 100 to 1000 | CS(=O)(=O)c1nc2ccccc2n1-c1nc(Nc2cccnc2)nc(N2CCOCC2)n1
47 | < 100 | < 100 |  | CN(c1cncnc1)c1nc(N2CCOCC2)nc(-n2c(C(F)F)nc3ccccc32)n1
48 | < 100 | < 100 | 100 to 1000 | FC(F)c1nc2ccccc2n1-c1nc(Nc2cccnn2)nc(N2CCOCC2)n1
49 | < 100 | < 100 | 100 to 1000 | COc1ccncc1Nc1nc(N2CCOCC2)nc(-n2c(C(F)F)nc3ccccc32)n1
50 | 100 to 1000 | 100 to 1000 | 100 to 1000 | CN(c1ccccc1)c1nc(N2CCOCC2)nc(-n2c(C(F)F)nc3ccccc32)n1
51 | < 100 | < 100 |  | COc1cccc2c1nc(C(F)F)n2-c1nc(-c2cccnc2)nc(N2CCOCC2)n1
52 | < 100 | < 100 |  | FC(F)c1nc2ccccc2n1-c1nc(Nc2ccncn2)nc(N2CCOCC2)n1
53 | < 100 | < 100 | < 100 | FC(F)c1nc2ccccc2n1-c1nc(Nc2cccnc2)nc(N2CCOCC2)n1
54 | 100 to 1000 |  |  | FC(F)c1nc2ccccc2n1-c1nc(NCc2ccncc2)nc(N2CCOCC2)n1
55 |  | 100 to 1000 |  | CSc1nc2ccccc2n1-c1nc(Nc2cccnc2)nc(N2CCOCC2)n1
56 | < 100 | < 100 | 100 to 1000 | FC(F)c1nc2ccccc2n1-c1nc(Nc2ccncc2)nc(N2CCOCC2)n1
57 | < 100 | < 100 | < 100 | FC(F)c1nc2ccccc2n1-c1nc(NCc2ccccn2)nc(N2CCOCC2)n1
